Molecules are shown by their SMILES.

The target of the experiment is T1, Alpha-2C adrenergic receptor (Homo sapiens, UniProt P18825).
T1 sequence (P18825 whole entry): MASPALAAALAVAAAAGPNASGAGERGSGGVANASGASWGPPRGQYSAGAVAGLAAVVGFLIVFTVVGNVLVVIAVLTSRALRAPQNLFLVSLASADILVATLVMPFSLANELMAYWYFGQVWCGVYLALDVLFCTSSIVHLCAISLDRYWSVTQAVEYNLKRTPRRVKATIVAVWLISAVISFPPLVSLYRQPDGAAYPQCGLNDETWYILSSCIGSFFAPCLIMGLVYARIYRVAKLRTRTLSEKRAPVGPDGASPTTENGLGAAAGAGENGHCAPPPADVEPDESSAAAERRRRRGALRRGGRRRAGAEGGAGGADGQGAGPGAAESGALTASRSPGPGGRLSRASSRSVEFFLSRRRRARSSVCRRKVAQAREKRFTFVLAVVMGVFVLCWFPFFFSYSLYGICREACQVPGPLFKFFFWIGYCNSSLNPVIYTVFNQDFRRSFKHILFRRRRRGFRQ
The experiment in a line: In Vitro Assay. The procedure: Antagonism against the adrenoreceptor α1A was tested using a recombinant human α1A receptor CHO cell line which additionally also recombinantly expresses mtAeq (mitochondrial aequorin). Antagonism against the adrenoreceptor α2A was tested using a recombinant human α2A-Gα16 receptor fusion protein CHO cell line (PerkinElmer Life Sciences) which additionally also recombinantly expresses mtAeq. Antagonism against the adrenoreceptor α2B was tested using a recombinant human α2B receptor CHO cell line (PerkinElmer Life Sciences) which additionally also recombinantly expresses mtAeq. Antagonism against the adrenoreceptor α2C was tested using a recombinant human α2C receptor CHO cell line which additionally also recombinantly expresses a chimaric G protein (Gαqi3) and mtOb (mitochondrial obelin).The cells were cultivated at 37° C. and 5% CO2 in Dulbecco's modified Eagle's Medium/NUT mix F12 with L-glutamine which additionally contains 10% (v/v) inactivated foetal calf serum, 1 mM sodium pyruvate, 0.9 mM sodium bicarbonate, 50 U/ml penicillin, 50 μg/ml streptomycin, 2.5 μg/ml amphotericin B and 1 mg/ml Geneticin. The cells were passaged with enzyme-free Hank's-based cell dissociation buffer. All cell culture reagents used were from Invitrogen (Carlsbad, USA).

For the compound `O=C(c1ccc(N2CC3(COC3)C2)nc1)N1CCC(N2CCc3ccccc3C2)CC1` [US9624198, 10], the half-maximal inhibitory concentration (IC50) stood at 11 nM.

A word on the IC50: it is the concentration that inhibits the measured activity by half. A low value points to greater potency.

The values are drawn from BindingDB's records for patent US9624198 (Bayer Pharma Aktiengesellschaft, 2017).
